The target in this experiment is T1, PIEZO1 (SW982 cells) (Homo sapiens, UniProt Q92508).
T1 construct: endogenous full-length channel in native SW982 cells; response lost on PIEZO1 siRNA knockdown
In words: Fura-2 Ca2+ imaging. In kind it is cell-based. Conditions: agonist; SBS with […] Ca2+, pH […]-26 °C; native SW982 cells, […] tested; bound only; read-out: apparent EC50.

pEC50: −log10 of the molar value. A value given as a limit tells only on which side of the number the result lay.

EC50 data for one compound are collected here from publication PMC5983681, “PIEZO1 Channel Is a Potential Regulator of Synovial Sarcoma Cell-Viability” (International Journal of Molecular Sciences, 2018).

A word on the pEC50: it is the EC50 on a negative log10 scale, so that one unit is a factor of ten.

T1 sequence (Q92508 whole entry): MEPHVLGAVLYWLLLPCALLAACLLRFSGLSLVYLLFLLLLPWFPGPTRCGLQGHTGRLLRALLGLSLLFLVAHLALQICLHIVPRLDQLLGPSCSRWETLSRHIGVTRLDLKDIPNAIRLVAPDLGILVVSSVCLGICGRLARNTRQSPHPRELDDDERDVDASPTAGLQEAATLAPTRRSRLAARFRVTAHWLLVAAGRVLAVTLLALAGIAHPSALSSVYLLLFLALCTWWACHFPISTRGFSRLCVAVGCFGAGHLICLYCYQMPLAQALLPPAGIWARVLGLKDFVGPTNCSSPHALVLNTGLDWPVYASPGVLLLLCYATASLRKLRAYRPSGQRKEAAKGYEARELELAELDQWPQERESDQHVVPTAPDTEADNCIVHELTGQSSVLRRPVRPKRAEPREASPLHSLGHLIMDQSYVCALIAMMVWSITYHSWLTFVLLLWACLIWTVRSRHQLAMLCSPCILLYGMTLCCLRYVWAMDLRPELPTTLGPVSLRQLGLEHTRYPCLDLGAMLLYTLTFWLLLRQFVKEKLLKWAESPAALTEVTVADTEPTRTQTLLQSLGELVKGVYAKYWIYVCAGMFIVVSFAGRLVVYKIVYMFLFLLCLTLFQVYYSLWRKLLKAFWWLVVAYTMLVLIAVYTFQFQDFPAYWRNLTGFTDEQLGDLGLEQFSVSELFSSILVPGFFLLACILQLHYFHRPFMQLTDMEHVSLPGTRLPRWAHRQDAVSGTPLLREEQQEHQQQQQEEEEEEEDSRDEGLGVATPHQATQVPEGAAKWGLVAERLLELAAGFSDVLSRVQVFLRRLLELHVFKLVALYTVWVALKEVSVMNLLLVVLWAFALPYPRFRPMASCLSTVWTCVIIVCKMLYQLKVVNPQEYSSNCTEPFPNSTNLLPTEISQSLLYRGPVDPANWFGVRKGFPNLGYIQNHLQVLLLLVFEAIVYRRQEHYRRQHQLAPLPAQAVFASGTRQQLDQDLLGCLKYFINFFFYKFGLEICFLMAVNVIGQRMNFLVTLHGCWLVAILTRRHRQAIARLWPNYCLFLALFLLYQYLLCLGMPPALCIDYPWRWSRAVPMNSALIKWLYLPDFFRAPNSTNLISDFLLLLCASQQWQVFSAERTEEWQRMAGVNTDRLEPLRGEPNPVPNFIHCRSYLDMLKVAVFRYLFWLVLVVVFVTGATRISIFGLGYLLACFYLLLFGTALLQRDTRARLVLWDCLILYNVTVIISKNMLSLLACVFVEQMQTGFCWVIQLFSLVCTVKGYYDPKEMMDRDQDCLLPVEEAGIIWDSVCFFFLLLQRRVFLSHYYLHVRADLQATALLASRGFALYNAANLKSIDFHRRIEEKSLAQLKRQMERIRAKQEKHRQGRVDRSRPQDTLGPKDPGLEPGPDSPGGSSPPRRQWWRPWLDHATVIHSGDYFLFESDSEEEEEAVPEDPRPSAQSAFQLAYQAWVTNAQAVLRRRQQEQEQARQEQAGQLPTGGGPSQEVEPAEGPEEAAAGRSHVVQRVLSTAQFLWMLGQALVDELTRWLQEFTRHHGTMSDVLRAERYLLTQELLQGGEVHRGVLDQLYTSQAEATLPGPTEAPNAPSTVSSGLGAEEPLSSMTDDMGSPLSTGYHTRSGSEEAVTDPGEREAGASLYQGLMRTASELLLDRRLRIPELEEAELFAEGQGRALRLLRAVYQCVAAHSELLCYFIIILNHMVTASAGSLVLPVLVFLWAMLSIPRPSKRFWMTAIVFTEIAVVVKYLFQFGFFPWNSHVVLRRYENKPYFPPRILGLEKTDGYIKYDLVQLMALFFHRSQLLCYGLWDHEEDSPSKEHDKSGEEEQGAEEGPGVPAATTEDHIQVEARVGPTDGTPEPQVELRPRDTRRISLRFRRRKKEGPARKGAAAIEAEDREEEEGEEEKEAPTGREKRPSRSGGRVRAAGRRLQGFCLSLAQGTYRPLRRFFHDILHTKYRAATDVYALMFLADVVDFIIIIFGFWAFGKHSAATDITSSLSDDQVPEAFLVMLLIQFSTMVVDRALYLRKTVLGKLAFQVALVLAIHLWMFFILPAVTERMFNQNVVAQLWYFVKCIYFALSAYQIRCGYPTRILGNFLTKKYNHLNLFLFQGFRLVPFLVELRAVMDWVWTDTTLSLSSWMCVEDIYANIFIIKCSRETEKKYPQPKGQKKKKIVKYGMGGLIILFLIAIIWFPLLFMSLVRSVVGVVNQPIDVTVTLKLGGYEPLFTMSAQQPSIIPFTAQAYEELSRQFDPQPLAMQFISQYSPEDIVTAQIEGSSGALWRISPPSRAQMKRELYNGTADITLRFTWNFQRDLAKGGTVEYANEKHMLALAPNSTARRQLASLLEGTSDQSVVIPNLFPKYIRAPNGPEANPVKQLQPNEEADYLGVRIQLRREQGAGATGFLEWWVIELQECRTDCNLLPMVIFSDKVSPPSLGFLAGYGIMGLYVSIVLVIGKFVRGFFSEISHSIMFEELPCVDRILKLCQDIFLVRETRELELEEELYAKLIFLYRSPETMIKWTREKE

Regarding `Clc1cccc(Cl)c1CSc1nnc(-c2cnccn2)s1` [Yoda1, 2-[5-[[(2,6-Dichlorophenyl)methyl]thio]-1,3,4-thiadiazol-2-yl]-pyrazine], the pEC50 was more than 6.00.
